Assay results: article PMC6274122, “Antibacterial Activity and Cytotoxicity of Silver(I) Complexes of Pyridine and (Benz)Imidazole Derivatives. X-ray Crystal Structure of [Ag(2,6-di(CH2OH)py)2]NO3” (Molecules, 2016)
Like-named read-outs stand apart in the source and are kept apart here.

Tests used:
[1] = test system: Escherichia coli ATCC 25922; test: Broth microdilution MIC/MBC (CLSI M07-A8), E. coli; assay type: cell-based; settings: for MBC (minimum bactericidal concentration): E. coli ATCC 25992; for MIC (minimum inhibitory concentration): Mueller-Hinton broth, 20 h at 37 °C, triplicate (SD = 0)
Description: (§1) The antimicrobial susceptibility testing of synthesized complexes, free ligands, and references compounds (AgNO3 and AgSD) was performed against three Gram-negative strains: Eschericha coli ATCC 25922, Proteus hauseri ATCC 13315, and Pseudomanos aeruginosa ATCC 15442. The minimum inhibitory concentration (MIC) and minimum bactericidal concentration (MBC) were determined by a modified broth microdilution method according to the recommendation of Clinical and Laboratory Standards Institute (CLSI M07-A8). In the experiments the Mueller-Hinton broth was used, the final organism density was about 5 × 10^5 CFU/mL and the tests were performed 20 h at 37 °C. The studied compounds were dissolved in water (1, 3, 4, 6, and the ligands [except 2-CH2OHbim]) or in DMSO (2, 5, and 2-CH2OHbim), and the appropriate amounts were added to samples (to biotic controls was added pure solvent). The compounds were tested in concentration ranging from 0 mg/L to 100 mg/L, except free ligands which were tested up to 500 mg/L.

[2] = test system: Proteus hauseri ATCC 13315; test: Broth microdilution MIC/MBC (CLSI M07-A8), P. hauseri; assay type: cell-based; settings: for MBC (minimum bactericidal concentration): P. hauseri ATCC 13315; for MIC (minimum inhibitory concentration): P. hauseri, Mueller-Hinton broth, 20 h at 37 °C, triplicate (SD = 0)
Description: as §1

[3] = test system: Pseudomonas aeruginosa ATCC 15442; test: Broth microdilution MIC/MBC (CLSI M07-A8), P. aeruginosa; assay type: cell-based; settings: for MBC (minimum bactericidal concentration): P. aeruginosa ATCC 15442; for MIC (minimum inhibitory concentration): Mueller-Hinton broth, 20 h at 37 °C, triplicate (SD = 0)
Description: as §1

[4] = Broth microdilution MIC of free ligands, strain not specified; assay type: cell-based; settings: Proteus hauseri, ATCC 13315 / ATCC 15442 / ATCC 25922; free ligands tested up to 500 mg/L
Description: as §1

[5] = test system: Escherichia coli ATCC 25922; parameters: method as in PMID 25846722; settings: cited from earlier work
[6] = test system: Pseudomonas aeruginosa ATCC 15442; parameters: method as in PMID 25846722; settings: cited from earlier work
[7] = test system: Proteus hauseri ATCC 13315; parameters: method as in PMID 25846722; settings: cited from earlier work
[8] = test system: E. coli ATCC 8739; parameters: method as in PMID 24218046; settings: cited from earlier work
[9] = test system: B16 (murine melanoma) cells; test: MTT cytotoxicity assay, B16 cells; assay type: cell-based; settings: 72 h incubation, three independent experiments, read-out: IC50 (concentration causing 50% reduction of cellular viability)
Description: The B16 (murine melanoma) cells and C3H10T1/2 (mouse fibroblast) cells were seeded 7 × 10^3 (B16) and 3 × 10^4 (10T1/2) per well/24 well plate into a medium containing DMEM GlutaMAX (Thermo Fisher Scientific, Waltham, MA USA), 10% bovine serum (Lonza, San Diego, CA, USA) added, and Antibiotic Antimicotic Solution 1:100 (Sigma-Aldrich). The plates were stored in a humidified incubator at 37 °C, 5% CO2. After 24 h, the cells were treated with the following compounds: compounds 1–6, free ligands, AgNO3, and AgSD (except control cells—wells without tested compound). Silver complexes 1, 3, 4, 6, and AgNO3 were dissolved in water. Complexes 2, 5, and AgSD are DMSO-soluble. Next, all chemicals were diluted into water to make a concentration 1, 0.1, 0.01 mg/mL and as a working solution were added to the medium. After 72 h of incubation, the cells were washed and incubated with 0.25 mg/mL MTT (Sigma-Aldrich) solution and were incubated for another 3 h. Isopropanol was added to dissolve the formazan crystals. Absorbance at 540 and 690 nm was read using Epoch Software version 2.01.14 (Bio-Tek, Winooski, VT, USA).

[10] = test system: P. aeruginosa ATCC 27853; parameters: method as in PMID 24218046; settings: cited from earlier work
[11] = test system: three Gram-negative strains: Eschericha coli ATCC 25922, Proteus hauseri ATCC 13315, and Pseudomanos aeruginosa ATCC 15442; test: Broth microdilution MIC of free ligands, strain not specified; assay type: cell-based; settings: free ligands tested up to 500 mg/L
Description: as §1

[12] = test system: B16 cells; parameters: method as in doi:10.1039/a702757e; settings: cited from earlier work

O=[N+]([O-])[O-].OCc1ccncc1.OCc1ccncc1.[Ag+] [Complex 4, [Ag(4-CH2OHpy)2]NO3]
MBC (minimum bactericidal concentration) [1]: 77 µM
MIC (minimum inhibitory concentration) ([1]; E. coli): 52 µM
MBC (minimum bactericidal concentration) [2]: 77 µM
MIC (minimum inhibitory concentration) [2]: 52 µM
MBC (minimum bactericidal concentration) [3]: 52 µM
MIC (minimum inhibitory concentration) ([3]; P. aeruginosa): 26 µM

OCc1ccncc1 [Complex 4-CH2OHpy]
MIC [4]: > 500 µg/mL

Cc1ncc([N+](=O)[O-])n1CCO.Cc1ncc([N+](=O)[O-])n1CCO.O=[N+]([O-])[O-].[Ag+] [Complex 6, [Ag(MTZ)2NO3]]
MBC (minimum bactericidal concentration) ([5]; E. coli ATCC 25992): 98 µM
MIC (minimum inhibitory concentration) ([5]; E. coli): 98 µM
MBC (minimum bactericidal concentration) ([6]; P. aeruginosa ATCC 15442): 117 µM
MIC (minimum inhibitory concentration) ([6]; P. aeruginosa): 59 µM
MBC (minimum bactericidal concentration) ([7]; P. hauseri ATCC 13315): 117 µM
MIC (minimum inhibitory concentration) ([7]; P. hauseri): 98 µM

OCc1cccc(CO)n1 [2,6-di(CH2OH)py, 2,6-di(hydroxymethyl)-pyridine]
MIC [4]: > 500 µg/mL

{[Ag(4-pmOpe)]NO3}n [Complex 1]
MBC (minimum bactericidal concentration) [1]: 145 µM
MIC (minimum inhibitory concentration) ([1]; E. coli): 96 µM
MIC [8]: 37.6 µM
IC50 [9]: 13 µM
MBC (minimum bactericidal concentration) [2]: 120 µM
MIC (minimum inhibitory concentration) [2]: 72 µM
MBC (minimum bactericidal concentration) [3]: 72 µM
MIC (minimum inhibitory concentration) ([3]; P. aeruginosa): 48 µM
MIC [10]: 37.6 µM

CCOP(=O)(OCC)OCc1nc2ccccc2[nH]1 [Complex 2-bimOpe]
MIC values of the free ligands [11]: > 500 mg/L^−1

O=[N+]([O-])[O-].OCc1nc2ccccc2[nH]1.OCc1nc2ccccc2[nH]1.[Ag+] [Complex 5, [Ag(2-CH2OHbim)2]NO3]
MBC (minimum bactericidal concentration) [1]: 21 µM
growth-inhibiting concentration, fold lower than that of AgSD ([1]; E. coli, MIC relative to AgSD): 2.6 fold
MIC (minimum inhibitory concentration) ([1]; E. coli): 21 µM
MBC (minimum bactericidal concentration) [2]: 43 µM
MIC (minimum inhibitory concentration) [2]: 21 µM
MBC (minimum bactericidal concentration) [3]: 21 µM
growth-inhibiting concentration, fold lower than that of AgSD ([3]; P. aeruginosa, MIC relative to AgSD): 2.6 fold
MIC (minimum inhibitory concentration) ([3]; P. aeruginosa): 21 µM

CCOP(=O)(OCC)OCc1ccncc1 [Complex 4-pmOpe]
MIC values of the free ligands [11]: > 500 mg/L^−1

CCOP(=O)(OCC)OCc1nc2ccccc2[nH]1.CCOP(=O)(OCC)OCc1nc2ccccc2[nH]1.O=[N+]([O-])O.[Ag] [Complex 2, [Ag(2-bimOpe)2]NO3]
MBC (minimum bactericidal concentration) [1]: 54 µM
MIC (minimum inhibitory concentration) ([1]; E. coli): 27 µM
MIC [8]: 21.2 µM
MBC (minimum bactericidal concentration) [2]: 41 µM
MIC (minimum inhibitory concentration) [2]: 27 µM
MBC (minimum bactericidal concentration) [3]: 27 µM
MIC (minimum inhibitory concentration) ([3]; P. aeruginosa): 14 µM
MIC [10]: 5.3 µM

N.N.[Cl][Pt][Cl] [cis-DDP, cisplatin]
IC50 [12]: 0.9 µM
IC50 [9]: 7.87 µM

O=[N+]([O-])[O-].[Ag+] [AgNO3, silver nitrate, reference compound]
MBC (minimum bactericidal concentration) [1]: 177 µM
MIC (minimum inhibitory concentration) ([1]; E. coli): 118 µM
IC50 [9]: 9.74 µM
MBC (minimum bactericidal concentration) [2]: 177 µM
MIC (minimum inhibitory concentration) [2]: 118 µM
MBC (minimum bactericidal concentration) [3]: 59 µM
MIC (minimum inhibitory concentration) ([3]; P. aeruginosa): 59 µM

O=[N+]([O-])[O-].OCc1cccc(CO)n1.OCc1cccc(CO)n1.[Ag+] [Complex 3, [Ag(2,6-di(CH2OH)py)2]NO3]
MBC (minimum bactericidal concentration) [1]: 67 µM
MIC (minimum inhibitory concentration) ([1]; E. coli): 67 µM
MBC (minimum bactericidal concentration) [2]: 112 µM
MIC (minimum inhibitory concentration) [2]: 67 µM
MBC (minimum bactericidal concentration) [3]: 67 µM
MIC (minimum inhibitory concentration) ([3]; P. aeruginosa): 45 µM
